{"source": "patent US20240002899A1", "about": "(priority 2022, published 2024)", "system": "VSV (ATCC VR-1238)", "format": "cell-based, vesicular stomatitis virus", "note": "Where two headings read alike, the source gives them in different places.", "data": [{"smiles": "Cc1cc2nc3c(=O)[nH]c(=O)nc-3n(C[C@H](O)[C@H](O)[C@H](O)CO)c2cc1C", "note": "[riboflavin]", "values": [{"measurement": "MVEPI of VSV in plasma", "setting": "intermediate-acting RUV: 311 nm, irradiation dose 6.49 J/mL", "value": 4.04}, {"measurement": "MVEPI of VSV in plasma", "setting": "weak-acting (low-acting) RUV: 365 nm, irradiation dose 12.56 J/mL", "value": 1.77}]}]}
